Experimental data as given in patent publication US20250049789A1, “METHODS OF TREATING ALOPECIA ARAETA” (AbbVie Inc., priority 2023, published 2025).

Test system: alopecia areata
Experiment: Efficacy and safety of upadacitinib in AD patients with concomitant alopecia areata (SALT, AA-IGA)
Format: in vivo, human
Excerpt: According to data reported in the patient clinical report forms by each investigator, all AD patients who were concomitantly suffering from alopecia areata at the baseline visit were identified. Medical records included demographic characteristics such as age, sex, occupation, smoking habits (smoker, former smoker, or non-smoker), AD history and severity, alopecia areata history and severity, prior treatments, atopic and non-atopic comorbidities, serum IgE levels, and concomitant therapies.
Patients were evaluated at baseline, and follow-up visits were scheduled after 4 weeks from baseline, and every 12 weeks thereafter. At baseline and at each follow-up visit, AD severity was assessed by Eczema Area and Severity Index (EASI) together with other tools. To evaluate severity and treatment response of alopecia areata, Severity of Alopecia Tool (SALT) and Alopecia Areata-Investigator Global Assessment (AA-IGA) were performed, as commonly used in daily practice. […] The SALT change throughout the observation period was recorded as the difference between the baseline SALT score and the SALT score value calculated at each follow-up visit (A SALT).
Qualitative and quantitative variables were described as relative frequencies (%), mean and standard deviation (or medians and interquartile ranges [IR], as appropriate), respectively. […] Data are reported and analysed “as observed”. […]

Structure (SMILES): CC[C@@H]1CN(C(=O)NCC(F)(F)F)C[C@@H]1c1cnc2cnc3[nH]ccc3n12 [upadacitinib, (3S,4R)-3-ethyl-4-(3H-imidazo[1,2-a]pyrrolo[2,3-e]pyrazin-8-yl)-N-(2,2,2-trifluoroethyl)pyrrolidine-1-carboxamide]
- predicted SALT reduction for each 1-unit increase in the age of alopecia areata onset (multivariable regression, independent of baseline SALT and sex): 2.1 point
- patients with clinically meaningful hair regrowth (achievement of at least SALT 50 response) (upadacitinib 30 mg once daily, after 4 weeks of treatment): about 16%
